Experimental data published in patent US10500179B2, “Glycine for use in tolerance induction in allergic patients” (N. V. Nutricia, priority 2015, dated 2019).

How the values were obtained:
RBL-2H3 cells = settings: glycine concentration series from 500 μg/ml, 20 hours incubation, concentration dependent
Description: RBL-2H3 cells were sensitized by 100 ng/ml mouse IgE α-dinitrophenyl in culture medium (DMEM with 10% FBS and 1% penicillin/[…]) and plate out 100 μl/well in a 96-well flat bottom plate. After 18 hrs of culturing at 37° C. with 5% CO2, the cells were washed 4 times with 200 μl Tyrode's buffer (130 mM NaCl, […], 1.4 mM CaCl2, 1 mM MgCl2, 5.6 mM glucose, 10 mM HEPES, and 0.1% bovine serum albumin in distilled water, pH 7.4). 25 μl glycine in a concentration series starting form 500 μg/ml and diluted 1:1 in Tyrode's buffer (component), 25 μl Tyrode's buffer (controls) or 25 μl quercetin 100 μM (positive control) were added to the cells. 25 μl of DNP-BSA (100 ng/ml) and 50 μl Tyrode's buffer were added to each component well. After 20 hours incubation at 37° C. with 5% CO2 90 μl of the cells supernatant was collected and stored at −80° C. for cytokine analysis by multiplex bead immunoassay.

[1] = tested on: Female C3H/HeOuJ mice sensitized against bovine whey protein; settings: oral gavage 50 or 100 mg/mouse 24 and 4 hours before sensitization
[2] = tested on: human peripheral blood mononuclear cells (PBMCs); assay: LPS induced TNF-α synthesis by human PBMCs (ELISA); format: cell-based; settings: FIG. 3
Text: The next experiment done by the inventor relates to the question whether amino acids are able to enhance immune effects of free glycine. To investigate this, human peripheral blood mononuclear cells (PBMCs) were stimulated with lipopolysaccharide (LPS) in the presence of free glycine in combination with different levels of free glutamine In short: Human PBMCs were obtained from buffy coats supplied by the blood bank and prepared by Ficoll gradient centrifugation according to standard methods. The recovered PBMCs were washed with PBS and cultured in RPMI-1640 containing, penicillin, streptomycin and 5% Fetal call serum (FCS), 1.5E5 cells/well (96-wells culture plate). The cells were stimulated with LPS (E. coli, 055:B5, 10 ng/ml) for 20 hr after 1 hr pre-incubation with different levels of glycine in combination with different levels of glutamine. The tested levels of glycine and glutamine were also tested separately. TNF-α levels were detected in the supernatant of the cells using an ELISA kit.

Row | SMILES | crosslinking induced TNFα production (RBL-2H3 cells; FIG. 1A) | crosslinking induced IL-4 production (RBL-2H3 cells; FIG. 1B) | crosslinking induced IL-13 production (RBL-2H3 cells; FIG. 1C) | allergic skin response (ear swelling) after intradermal whey injection ([1]; effect concentration dependent, FIG. 2A) | mMCP1 release (by intestinal mast cells) after an oral allergen challenge ([1]; serum one hour after 50 mg whey oral challenge, FIG. 2B) | production of whey-specific IgE ([1]; serum, ELISA, FIG. 2C) | LPS induced TNF-α synthesis by PBMCs ([2]; LPS 10 ng/ml for 20 hr after 1 hr pre-incubation) | effect of glutamine on glycine inhibition of LPS induced TNF-α synthesis ([2]; glutamine combined with glycine at specific ratios, LPS 10 ng/ml 20 hr)
1 | NCC(=O)O [Glycine, glycine] | inhibits | inhibits | inhibits | inhibits the allergy development | inhibits allergy development | inhibits | inhibited | 
2 | NC(=O)CC[C@H](N)C(=O)O [glutamine] |  |  |  |  |  |  |  | enhanced this effect synergistically
